Experimental data from patent publication US5958966A, “Treatment of aberrant cellular states with biomodulators” (University of New Mexico, priority 1995, dated 1999).
Entries after “also recorded” stand apart in the source; their conditions may differ.

Columns and labels:
canine glioma (CG) cells = experiment: cell surface oligosaccharide display of canine glioma cells (lectin binding, Scatchard, Gibb's Free Energy); assay type: cell-based; settings: control 14.9 kcal
From the text: Taken together these affinity differences account for almost 10 kcal of additional binding energy retrievable from interactions in the case of the IMR-90s which is unavailable to the CGs. […] This treatment regimen results in an increase in the Tg of the cells as well as changes in the proton linewidth of unfrozen water (shown below). […] This display more closely resembles that of the growth regulated IMR-90s. It should be noted that the actual lines on these figures are visual estimates however, the data in the boxes are calculated values. It is these values that are used to estimate the GFE for comparison purposes.
The cell surface oligosaccharide display was assessed by methods developed previously. In brief, cells from a sub-culturing were aliquotted into 96 well trays at 5×10^5 cells per ml, 100 μL aliquots. After 16 hours of culture the cells were washed, fixed, and blocked with 0.1% BSA/PBS. Optimal lectin concentrations (5 μg/ml)were used to give 80 to 90% saturation of the available sites. Three carbohydrate ligands at 10 μg concentrations in triplicate or quadruplicate were then used to prepare competition curves for the lectin binding. The Bound over Free (B/F) ratio was calculated and the Ligand microprocessor program was used to determine the optimal fit of the data to a polynomial generated model. The Gibb's Free Energy (GFE) was calculated from the Scatchard data on the competition assay by the following equation: GFE=-RT 1n Kequit. The proton NMR linewidth measurements were conducted as described previously.

B16 melanoma cells = experiment: effect of swainsonine on cytotoxic T-lymphocytes (51Cr release); assay type: in vivo, mouse
Protocol: The cytotoxicity assay used two targets: YAC-1, for natural killer cell targets and B16 melanoma cells, for cytolytic T-cell targets. The YAC-1 cells were labelled in GKN (ucose/KCl/NaCl) with ^51 Cr (NEN-DuPont, 400-1200 Ci/g activity) for 60 min. The B16's were ^51 Cr labelled in complete α-MEM media for 60 min. Both targets were washed twice through whole fetal calf serum to remove damaged and dead cells and then suspended in complete RPMI at a final concentration of 1×10^5 cells/ml. The spleen cells (effector cells) were plated in round bottom 96 well trays starting at 1×10^7 cells/ml (100 μl/well), using a halving dilution that provided splenocyte concentrations of 10^6, 5×10^5, 2.5×10^5, 1.25×10^5, 6.25×10^4 and 3.125×10^4, all done in triplicate. The target cells were added at 1×10^4 cell/100 μl/well; this gave an effector:target cell ratio ranging from 100:1 to 3:1. Controls included spontaneous ^51 Cr release and 100% lysis (10% triton treatment). The trays were centrifuged at 50×g for 5 min. and incubated in a CO2 incubator at 37° C. for 16 hours. The trays were spun again at 50×g for 5 minutes and 100 μl removed from each well for counting. A Packard gamma counter (United Technologies) was used for counting. Each sample was counted for 1 min. giving a 5% counting efficiency. The following equation was used to determine percent lysis.
The effector:target ratios were then plotted against percent lysis and a simple line equation was determined for each treatment group. The slope of this line was then used to determine the total effector kill efficiency.
The ^51 Cr cytotoxicity assay was also run with the B16 melanoma cells as the target and the splenocytes from the same mice as above as the effector cells. The baseline mice (no tumor/no Sw) and the control mice (tumor/no SW) had very similar line shapes and slopes. There were significant differences (p=0.03) between the presence and absence of tumor (see Table in FIG. 68).

[1] = test system: plaque forming cells (splenocytes); experiment: effect of swainsonine on humoral immunity (PFC assay); assay type: in vivo, mouse; settings: for PFC versus control in words: listed as Sw
Protocol: The plaque forming cell (PFC) assay was done according to the method developed by Jerne and Nordin (1963). The splenocytes were washed in serum-free RPMI-1640 and brought to a final concentration of 1×10^6 cell/100 μl. Sheep red blood cells (sRBC), from The Colorado Serum Company, were labelled with protein A from Staphylococcus aureus (Sigma). The sRBC's were washed 3 times with saline (0.85% NaCl), the packed cells were then incubated with 1 ml of protein A (0.5 mg/ml saline) and 10 ml of saline containing 0.1 μl of CrCl3 (35% solution) (Aldrich), for 20 minutes. The sRBC's were then washed 3 times with PBS and suspended in PBS to make a 30% solution. The sRBC's (50 μl) and splenocytes (100 μl) were combined with SeaPlaque agarose (FMC Corporation) and smeared on a 75 mm×50 mm microscope slide to form a lawn of target red blood cells with uniformly dispersed effector cells. Each sample was done in triplicate. The agarose was allowed to harden and the slides were placed in trays containing serum-free RPMI-1640. The trays were incubated at 37° C. in a CO2 incubator for 90 min. After incubation the slides were placed in slide holders containing normal saline for a wash step. The rabbit/anti-mouse antibody (DAKO Corporation) was diluted 1:400 with serum free RPMI-1640 and added to the slide trays. Following another 90 min. incubation at 37° C. in a CO2 incubator, the slides were again washed. Fresh frozen guinea pig complement (GIBCO) (2%) in serum-free RPMI-1640 was added to the slide trays and incubated for another 60 to 90 min. depending on the time necessary for plaque formation. The number of plaques were counted and the results reported as number of plaque forming cells per 1×10^6 splenocytes.
Mice were pretreated for 3 weeks with Sw (0.1 μg and 0.01 μg), and then received B16 cells. At 3 time points post tumor cell injection (day 0, 7 and 14), the mice were sacrificed and the spleens were removed. The cells were then used to determine the effect of Sw on humoral immunity. […] The presence of a day 7 tumor caused a return to baseline for all the groups. A significant difference (p=0.001) was seen on day 14 post tumor injection with the mice treated with 0.01 μg Sw.

lymphoid IL-2R / LAK = settings: Bowlin et al. and further work; listed as Sw; cited from earlier work

**Q.** With `O[C@H]1[C@H]2[C@H](O)CCCN2C[C@H]1O` [Swainsonine, swainsonine] as the compound, how does the “Gibb's Free Energy” value (canine glioma (CG) cells; 2 cycles) read?
**A.** 15.2 kcal

**Q.** And the “Gibb's Free Energy” value (canine glioma (CG) cells; 4 cycles)?
**A.** 20.5 kcal

**Q.** And the “Gibb's Free Energy” value (canine glioma (CG) cells; 7 cycles)?
**A.** 21.9 kcal

**Q.** And the “CTL activity in words” value (B16 melanoma cells; 0.1 μg Sw for 3 weeks, listed as Sw)?
**A.** greater than that of the control and of the 0.01 μg treated mice; also recorded: significant increase in the CTL activity

**Q.** And the “increase in line slope above baseline” value (B16 melanoma cells; 0.1 μg Sw, day 7 tumor)?
**A.** 228%

**Q.** What about the “increase in line slope over control mice with day 7 tumor” value (B16 melanoma cells; 0.1 μg Sw, day 7 tumor) of the same compound?
**A.** 127%

**Q.** What about the “increase in plaque forming cells” value ([1]; 0.01 μg Sw, before tumor, p=0.001) of the same compound?
**A.** 89%

**Q.** And the “increase in PFC over mice without Sw with day 14 tumors” value ([1]; 0.01 μg Sw, day 14)?
**A.** 108%

**Q.** And the “increase in PFC over mice without tumors or treatment” value ([1]; 0.01 μg Sw, day 14)?
**A.** 144%

**Q.** What about the “PFC versus control in words” value ([1]; 0.1 μg Sw without tumor (p=0.04)) of the same compound?
**A.** not as significantly different from the control group; also recorded: significant changes in the formation of plaques prior to tumor exposure

**Q.** And the “PFC versus control in words” value ([1]; 0.1 μg Sw, day 14 (p=0.13))?
**A.** not a significant difference between the controls and these treated mice; also recorded: even higher levels

**Q.** What about the “effect on IL-2R expression, IL-2 induced proliferation and LAK induction” value (lymphoid IL-2R / LAK) of the same compound?
**A.** augmented lymphoid IL-2R expression and IL-2 induced proliferation following mitogenic stimulation; also recorded: augmented the LAK induction at normally sub-optimal stimulation doses
